Data: publication PMC4494852, “Microwave-assisted preparation, structural characterization, lipophilicity, and anti-cancer assay of some hydroxycoumarin derivatives” (Monatshefte Fur Chemie, 2014)

Columns and labels:
[1] = Lipophilicity by reversed-phase TLC on RP-18 WF254s plates with standardization; conditions: for φ 0 (intercept of the trend line with abscissa axis): molar fraction for which lipophilicity equals 0
[2] = known logP of standards; cited from earlier work

Nc1ccc(Cl)cc1Cl [2,4-Dichloroaniline, 2,4-dichloroaniline, reference compound]
R M0 (lipophilicity extrapolated to 100 % water) ([1]; acetonitrile/water): 1.8609
S (slope of the trend line RM vs φ) ([1]; acetonitrile/water): 3.3029
R M0 (lipophilicity extrapolated to 100 % water) ([1]; dioxane/water): 2.0135
S (slope of the trend line RM vs φ) ([1]; dioxane/water): 3.3036
R M0 (lipophilicity extrapolated to 100 % water) ([1]; isopropanol/water): 2.1269
S (slope of the trend line RM vs φ) ([1]; isopropanol/water): 4.2876
R M0 (lipophilicity extrapolated to 100 % water) ([1]; methanol/water): 1.8895
S (slope of the trend line RM vs φ) ([1]; methanol/water): 2.7739
LogP value [2]: 2.91

Cc1cc(=O)oc2cc(O)ccc12 [Compound 8, 7-hydroxy-4-methylcoumarin]
S (slope of the trend line RM vs φ) ([1]; acetonitrile/water): 2.5539
φ 0 (intercept of the trend line with abscissa axis) ([1]; acetonitrile/water): 0.382
S (slope of the trend line RM vs φ) ([1]; dioxane/water): 2.2314
φ 0 (intercept of the trend line with abscissa axis) ([1]; dioxane/water): 0.409
S (slope of the trend line RM vs φ) ([1]; isopropanol/water): 2.0405
φ 0 (intercept of the trend line with abscissa axis) ([1]; isopropanol/water): 0.372
S (slope of the trend line RM vs φ) ([1]; methanol/water): 2.0525
φ 0 (intercept of the trend line with abscissa axis) ([1]; methanol/water): 0.567

c1ccc(Nc2ccccc2)cc1 [Diphenylamine, diphenylamine, reference compound]
S (slope of the trend line RM vs φ) ([1]; acetonitrile/water): 4.1309
S (slope of the trend line RM vs φ) ([1]; dioxane/water): 3.8375
S (slope of the trend line RM vs φ) ([1]; isopropanol/water): 4.6873
S (slope of the trend line RM vs φ) ([1]; methanol/water): 2.9469

CC(=O)c1cc2c(C)cc(=O)oc2cc1O [Compound 11, 6-Acetyl-7-hydroxy-4-methylcoumarin]
S (slope of the trend line RM vs φ) ([1]; acetonitrile/water): 2.9356
φ 0 (intercept of the trend line with abscissa axis) ([1]; acetonitrile/water): 0.425
S (slope of the trend line RM vs φ) ([1]; dioxane/water): 2.5162
φ 0 (intercept of the trend line with abscissa axis) ([1]; dioxane/water): 0.409
S (slope of the trend line RM vs φ) ([1]; isopropanol/water): 2.8074
φ 0 (intercept of the trend line with abscissa axis) ([1]; isopropanol/water): 0.362
S (slope of the trend line RM vs φ) ([1]; methanol/water): 1.8855
φ 0 (intercept of the trend line with abscissa axis) ([1]; methanol/water): 0.526

O=[N+]([O-])c1ccccc1O [2-Nitrophenol, 2-nitrophenol, reference compound]
R M0 (lipophilicity extrapolated to 100 % water) ([1]; acetonitrile/water): 1.1246
S (slope of the trend line RM vs φ) ([1]; acetonitrile/water): 2.5429
R M0 (lipophilicity extrapolated to 100 % water) ([1]; dioxane/water): 1.0657
S (slope of the trend line RM vs φ) ([1]; dioxane/water): 2.2497
R M0 (lipophilicity extrapolated to 100 % water) ([1]; isopropanol/water): 1.2375
S (slope of the trend line RM vs φ) ([1]; isopropanol/water): 2.9639
R M0 (lipophilicity extrapolated to 100 % water) ([1]; methanol/water): 1.0469
S (slope of the trend line RM vs φ) ([1]; methanol/water): 1.9676

CC(=O)Nc1ccc(Cl)c(Cl)c1 [3,4-Dichloroacetanilide, reference compound]
S (slope of the trend line RM vs φ) ([1]; acetonitrile/water): 3.5551
S (slope of the trend line RM vs φ) ([1]; dioxane/water): 3.0847
S (slope of the trend line RM vs φ) ([1]; isopropanol/water): 4.1116
S (slope of the trend line RM vs φ) ([1]; methanol/water): 2.4827
LogP value [2]: 2.96

CC(=O)Oc1ccc2c(C)cc(=O)oc2c1 [Compound 10, 7-Acetoxy-4-methylcoumarin]
S (slope of the trend line RM vs φ) ([1]; acetonitrile/water): 3.506
φ 0 (intercept of the trend line with abscissa axis) ([1]; acetonitrile/water): 0.526
S (slope of the trend line RM vs φ) ([1]; dioxane/water): 3.3341
φ 0 (intercept of the trend line with abscissa axis) ([1]; dioxane/water): 0.518
S (slope of the trend line RM vs φ) ([1]; isopropanol/water): 3.436
φ 0 (intercept of the trend line with abscissa axis) ([1]; isopropanol/water): 0.448
S (slope of the trend line RM vs φ) ([1]; methanol/water): 2.3174
φ 0 (intercept of the trend line with abscissa axis) ([1]; methanol/water): 0.680

CC(=O)Oc1cc(C)cc2oc(=O)cc(C)c12 [Compound 2a, 5-acetoxy-4,7-dimethylcoumarin]
S (slope of the trend line RM vs φ) ([1]; acetonitrile/water): 3.6418
φ 0 (intercept of the trend line with abscissa axis) ([1]; acetonitrile/water): 0.481
S (slope of the trend line RM vs φ) ([1]; dioxane/water): 3.2936
φ 0 (intercept of the trend line with abscissa axis) ([1]; dioxane/water): 0.474
S (slope of the trend line RM vs φ) ([1]; isopropanol/water): 3.8312
φ 0 (intercept of the trend line with abscissa axis) ([1]; isopropanol/water): 0.424
S (slope of the trend line RM vs φ) ([1]; methanol/water): 2.5335
φ 0 (intercept of the trend line with abscissa axis) ([1]; methanol/water): 0.642

O=c1ccc2ccc(O)cc2o1 [Compound 7, umbelliferone]
R M0 (lipophilicity extrapolated to 100 % water) ([1]; acetonitrile/water): 0.7232
S (slope of the trend line RM vs φ) ([1]; acetonitrile/water): 2.0876
φ 0 (intercept of the trend line with abscissa axis) ([1]; acetonitrile/water): 0.346
R M0 (lipophilicity extrapolated to 100 % water) ([1]; dioxane/water): 0.6676
S (slope of the trend line RM vs φ) ([1]; dioxane/water): 1.8746
φ 0 (intercept of the trend line with abscissa axis) ([1]; dioxane/water): 0.356
R M0 (lipophilicity extrapolated to 100 % water) ([1]; isopropanol/water): 0.5162
S (slope of the trend line RM vs φ) ([1]; isopropanol/water): 1.6695
φ 0 (intercept of the trend line with abscissa axis) ([1]; isopropanol/water): 0.309
R M0 (lipophilicity extrapolated to 100 % water) ([1]; methanol/water): 0.9623
S (slope of the trend line RM vs φ) ([1]; methanol/water): 1.9022
φ 0 (intercept of the trend line with abscissa axis) ([1]; methanol/water): 0.506

O=C(c1ccccc1)c1ccccc1 [Benzophenone, benzophenone, reference compound]
S (slope of the trend line RM vs φ) ([1]; acetonitrile/water): 4.1335
S (slope of the trend line RM vs φ) ([1]; dioxane/water): 3.6381
S (slope of the trend line RM vs φ) ([1]; isopropanol/water): 4.4575
S (slope of the trend line RM vs φ) ([1]; methanol/water): 3.2945

Nc1ccc(Cl)c(Cl)c1 [3,4-Dichloroaniline, 3,4-dichloroaniline, reference compound]
R M0 (lipophilicity extrapolated to 100 % water) ([1]; acetonitrile/water): 1.7807
S (slope of the trend line RM vs φ) ([1]; acetonitrile/water): 3.2165
R M0 (lipophilicity extrapolated to 100 % water) ([1]; dioxane/water): 1.9357
S (slope of the trend line RM vs φ) ([1]; dioxane/water): 3.3499
R M0 (lipophilicity extrapolated to 100 % water) ([1]; isopropanol/water): 2.149
S (slope of the trend line RM vs φ) ([1]; isopropanol/water): 4.4484
R M0 (lipophilicity extrapolated to 100 % water) ([1]; methanol/water): 2.1151
S (slope of the trend line RM vs φ) ([1]; methanol/water): 3.2073
LogP value [2]: 2.69

c1ccc(Cc2ccccc2)cc1 [Diphenylmethane, diphenylmethane, reference compound]
S (slope of the trend line RM vs φ) ([1]; acetonitrile/water): 5.2957
S (slope of the trend line RM vs φ) ([1]; dioxane/water): 5.0853
S (slope of the trend line RM vs φ) ([1]; isopropanol/water): 6.2485
S (slope of the trend line RM vs φ) ([1]; methanol/water): 4.067
LogP value [2]: 4.14

CC(=O)c1c(O)ccc2c(C)cc(=O)oc12 [Compound 9, 8-Acetyl-7-hydroxy-4-methylcoumarin]
S (slope of the trend line RM vs φ) ([1]; acetonitrile/water): 3.0614
φ 0 (intercept of the trend line with abscissa axis) ([1]; acetonitrile/water): 0.464
S (slope of the trend line RM vs φ) ([1]; dioxane/water): 3.2472
φ 0 (intercept of the trend line with abscissa axis) ([1]; dioxane/water): 0.508
S (slope of the trend line RM vs φ) ([1]; isopropanol/water): 2.6277
φ 0 (intercept of the trend line with abscissa axis) ([1]; isopropanol/water): 0.446
S (slope of the trend line RM vs φ) ([1]; methanol/water): 2.5967
φ 0 (intercept of the trend line with abscissa axis) ([1]; methanol/water): 0.697
